Measured values: US20120015925A1, “NOVEL BENZOTHIAZEPINE AND BENZOTHIEPINE COMPOUNDS” (ASAHI KASEI PHARMA CORPORATION, priority 2004, published 2012)

Columns and labels:
[1] = biological target: T1, human IBAT (Homo sapiens, UniProt Q12908); assay: In vitro assay using Cos 7 cells, transiently expressed human IBAT; format: cell-based; details: [3H]-taurocholate 8 μM uptake, 37° C., 60 minutes
T1 sequence (Q12908 1-348): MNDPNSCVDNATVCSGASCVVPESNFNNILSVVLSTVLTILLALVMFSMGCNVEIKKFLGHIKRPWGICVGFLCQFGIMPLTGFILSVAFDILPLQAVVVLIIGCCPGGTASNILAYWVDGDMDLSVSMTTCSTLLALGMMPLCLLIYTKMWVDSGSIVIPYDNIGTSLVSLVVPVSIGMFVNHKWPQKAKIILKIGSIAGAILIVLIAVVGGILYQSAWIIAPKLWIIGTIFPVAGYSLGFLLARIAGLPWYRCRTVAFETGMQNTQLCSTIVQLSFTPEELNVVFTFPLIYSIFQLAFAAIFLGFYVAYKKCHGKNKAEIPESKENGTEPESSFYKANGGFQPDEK
Summary of the method: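 Cos 7 cells transfected with human or rat IBAT cDNA were assayed one day later in Hanks buffer with 25 mM glucose and 10 mM HEPES (pH 7.4) containing compound. [^3H]-taurocholate (8 μM final) uptake ran 60 min at 37° C. Cells were washed with 1 mM taurocholate, lysed in NaOH, and counted by liquid scintillation.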

[2] = system: KKA^y/Ta Jcl male mice; assay: Obesity and fatty liver model: body weight and liver triglyceride; format: in vivo, mouse; details: for BODY WEIGHT (g) BEFORE ADMINISTRATION: 1 mg/kg group, baseline; for BODY WEIGHT (g) DIFFERENCE / BODY WEIGHT (g) TWO WEEKS / LIVER TRIGLYCERIDE: 1 mg/kg once a day for 2 weeks
Protocol: In the present Test Example, an obesity and fatty liver model was employed with reference to the method described in WO02/09757.
That is, KKA^y/Ta Jcl male mice at 10 weeks of age were used as obese mice (N=4 to 7). The test compound was dissolved or suspended in the aqueous solution of 1% HCO 60 (supplied from Nippon Chemicals). The aqueous solution of 1% HCO 60 (supplied from Nippon Chemicals) was used as the control. The consecutive administration was performed once a day for 2 weeks, and body weight was measured daily and compared with the body weight on the day before the administration. On the day after the final administration, the liver was removed, and a triglyceride concentration in liver tissue was measured using a measurement kit (Triglyceride Test Wako, supplied from Wako Pure Chemical Industries). The results are shown in the following Table 14 (Tables 14-1 to 14-3).

[3] = system: Wistar rats given choline-deficient food; assay: Steatohepatitis model: AST and ALT in blood; format: in vivo, rat; details: 3 mg/kg oral once a day for 2 weeks, n = 4, average ± standard error; for AST: control group (n = 6) 180 ± 46; for ALT: control group (n = 6) 245 ± 57
Excerpt: In the present Test Example, a steatohepatitis model was employed with reference to the method of Okan A et al. (Dig. Dis. Sci., 47:2389-2397, 2002).
That is, choline-deficient food (supplied from Oriental Yeast Co., Ltd.) was given to Wistar rats at 7 weeks of age for two weeks to prepare a steatohepatitis model. The test compound was suspended in an aqueous solution of 0.5% methylcellulose (supplied from Wako Pure Chemical Industries), and the aqueous solution of 0.5% methylcellulose (supplied from Wako Pure Chemical Industries) was used as the control. They were orally administered once a day for consecutive 2 weeks. The blood was collected from the abdominal aorta on the day after the final drug administration. AST (GOT) and ALT (GPT) in the blood were measured using the measurement kits (GOT II-HA Test Wako and GPT II Test Wako, supplied from Wako Pure Chemical Industries) with an automatic analyzer (Nitech ANALAYZER SUPER Z818).

[4] = system: rats dosed cholic acid; assay: Lowering effect on bile acid concentrations in portal vein blood in rats dosed cholic acid; format: in vivo, rat
Summary of the method: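 Fasted male SD (IGS) rats aged 7–9 weeks received oral cholic acid (200 mg/kg) plus test compound in water with 0.05% or 1% surfactant (n=6). Portal vein serum total bile acid measured 2 h post-dose; reduction rate (%) calculated against cholic acid-only controls set as 100%.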

[5] = Table 14-2, control group 44.1 ± 0.6
[6] = Table 14-2, control group 0.7 ± 0.4
[7] = Table 14-2, control group 44.8 ± 0.9
[8] = Table 14-2, control group 103 ± 19
[9] = 0.1 mg/kg oral with cholic acid 200 mg/kg, portal vein serum total bile acid 2 hours after, control = 100%, surfactant HCO-60 (##)
[10] = Table 14-1, control group 42.8 ± 0.4
[11] = Table 14-1, control group 42.0 ± 0.7
[12] = Table 14-1, control group 94 ± 18
[13] = Table 14-1, control group −0.8 ± 0.5

Row | Compound | IC50 [1] | BODY WEIGHT (g) BEFORE ADMINISTRATION [2, 5] | BODY WEIGHT (g) DIFFERENCE [2, 6] | BODY WEIGHT (g) TWO WEEKS [2, 7] | LIVER TRIGLYCERIDE [2, 8] | AST [3] | ALT [3] | BILE ACID REDUCTION RATE (%) IN RAT MODEL WITH CHOLIC ACID LOADING [4, 9] | BODY WEIGHT (g) BEFORE ADMINISTRATION [2, 10] | BODY WEIGHT (g) TWO WEEKS [2, 11] | LIVER TRIGLYCERIDE [2, 12] | BODY WEIGHT (g) DIFFERENCE [2, 13] | BILE ACID REDUCTION RATE (%) IN RAT MODEL WITH CHOLIC ACID LOADING ([4]; 0.1 mg/kg oral, surfactant Tween 20 0.05%, cholic acid 200 mg/kg, portal vein blood 2 hours after administration) | BILE ACID REDUCTION RATE (%) IN RAT MODEL WITH CHOLIC ACID LOADING ([4]; 0.1 mg/kg oral, surfactant HCO-60 0.1%, cholic acid 200 mg/kg, portal vein blood 2 hours after administration)
1 | C#CC[N+](C)(Cc1ccccc1)Cc1ccc(NC(=S)Nc2cccc(C3NC(CCCC)(CCCC)CS(=O)(=O)c4ccc(N(C)C)cc43)c2)cc1.[Br-] (racemic) [EXAMPLE 3448] | 37 nM | 44.1 ± 0.7 g | -2.0 ± 0.7 g | 42.1 ± 3.2 g | 74 ± 8 mg/g | 134 ± 23 IU/L | 143 ± 79 IU/L | 25% | – | – | – | – | – | –
2 | CCCCC1(CCCC)CS(=O)(=O)c2ccc(N(C)C)cc2C(c2cccc(NC(=S)Nc3ccc(C[N+]45CCC(c6ccccc6)(CC4)CC5)cc3)c2)N1.[Br-] (racemic) [EXAMPLE 3696] | 39 nM | 43.5 ± 1.3 g | -1.3 ± 0.3 g | 42.2 ± 2.2 g | 76 ± 12 mg/g | 98 ± 23 IU/L | 145 ± 34 IU/L | 13% | – | – | – | – | – | –
3 | CCCCC1(CCCC)CS(=O)(=O)c2ccc(N(C)C)cc2C(c2cccc(NC(=S)CCCCC[N+]34CCC(CC3)CC4)c2)N1.[Br-] (stereo not drawn) [EXAMPLE 1, 1-{5-[3-(3,3-dibutyl-7-dimethylamino-1,1-dioxo-2,3,4,5-tetrahydro-1,4-benzothiazepine-5-yl)phenylthiocarbamoyl]pentyl}-1-azoniabicyclo[2.2.2]octane bromide] | – | – | – | – | – | – | – | – | 43.0 ± 0.5 g | 41.0 ± 0.6 g | 71 ± 13 mg/g | -1.9 ± 0.3 g | 51% | –
4 | CCCCC1(CCCC)CS(=O)(=O)c2ccc(N(C)C)cc2C(c2cccc(NC(=S)Nc3ccc(C[N+](C)(C)Cc4ccccc4)cc3)c2)N1.[Br-] (stereo not drawn) [EXAMPLE 3440] | 37 nM | 44.6 ± 0.8 g | -0.7 ± 1.0 g | 43.9 ± 1.8 g | 88 ± 6 mg/g | 125 ± 34 IU/L | 167 ± 93 IU/L | – | – | – | – | – | – | 26%
5 | CCCCC1(CCCC)CS(=O)(=O)c2ccc(N(C)C)cc2C(c2cccc(NC(=S)Nc3ccc(C[N+]4(Cc5ccccc5)CCC(O)CC4)cc3)c2)N1.[Br-] (stereo not drawn) [EXAMPLE 3605] | 39 nM | – | – | – | – | 80 ± 34 IU/L | 121 ± 36 IU/L | 24% | 42.9 ± 1.1 g | 41.4 ± 1.0 g | 65 ± 7 mg/g | -1.5 ± 0.4 g | – | –
6 | CCCCC1(CCCC)CS(=O)(=O)c2ccc(N(C)C)cc2C(c2cccc(NC(=S)Nc3ccc(C[n+]4ccc(C(C)(C)C)cc4)cc3)c2)N1.[Br-] (stereo not drawn) [EXAMPLE 3713] | 37 nM | 44.0 ± 1.1 g | -2.5 ± 0.6 g | 41.5 ± 2.4 g | 59 ± 33 mg/g | 77 ± 37 IU/L | 118 ± 36 IU/L | 32% | – | – | – | – | – | –
7 | CCCCC1(CCCC)CS(=O)(=O)c2ccc(N(C)C)cc2C(c2cccc(NC(=S)Nc3ccc(C[n+]4cccc(CCCO)c4)cc3)c2)N1.[Br-] (stereo not drawn) [EXAMPLE 3747] | 45 nM | 44.3 ± 0.8 g | -2.1 ± 1.0 g | 42.2 ± 1.8 g | 47 ± 23 mg/g | 63 ± 86 IU/L | 102 ± 50 IU/L | 40% | – | – | – | – | – | –
8 | CCCCC1(CCCC)CS(=O)(=O)c2ccc(N(C)C)cc2C(c2cccc(NC(=S)Nc3ccc(C[n+]4cccc(CCC(=O)OC)c4)cc3)c2)N1.[Br-] (stereo not drawn) [EXAMPLE 3752] | 41 nM | 43.8 ± 1.2 g | -2.3 ± 0.9 g | 41.5 ± 1.0 g | 56 ± 23 mg/g | 69 ± 98 IU/L | 88 ± 45 IU/L | 42% | – | – | – | – | – | –
9 | CCCCC1(CCCC)CS(=O)(=O)c2ccc(N(C)C)cc2C(c2cccc(NC(=S)Nc3ccc(C[n+]4ccccc4CCC)cc3)c2)N1.[Br-] (stereo not drawn) [EXAMPLE 5408] | 32 nM | 44.0 ± 0.9 g | -1.8 ± 0.5 g | 42.2 ± 1.6 g | 70 ± 11 mg/g | 103 ± 45 IU/L | 149 ± 38 IU/L | 35% | – | – | – | – | – | –
